# Results: PubChem BioAssay (NCI)
#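 Test compounds were applied to cells in 96-well plates for 48 hours at 5 doses. At the TGI there is no net growth.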
# Experiments:
# Experiment in all cases: NCI-60 cell line screen, 48 h
# [1] = test system: 786-0 renal
# [2] = test system: A498 renal
# [3] = test system: A549 NSCLC
# [4] = test system: ACHN renal
# [5] = test system: BT-549 breast
# [6] = test system: CAKI-1 renal
# [7] = test system: CCRF-CEM leukemia
# [8] = test system: COLO 205 colon
# [9] = test system: DU-145 prostate
# [10] = test system: EKVX NSCLC
# [11] = test system: HCC-2998 colon
# [12] = test system: HCT-116 colon
# [13] = test system: HCT-15 colon
# [14] = test system: HOP-62 NSCLC
# [15] = test system: HS 578T breast
# [16] = test system: HT29 colon
# [17] = test system: IGROV1 ovarian
# [18] = test system: K-562 leukemia
# [19] = test system: KM12 colon
# [20] = test system: M14 melanoma
# [21] = test system: MALME-3M melanoma
# [22] = test system: MCF7 breast
# [23] = test system: MDA-MB-231 breast
# [24] = test system: MDA-MB-435
# [25] = test system: MDA-N
# [26] = test system: MOLT-4 leukemia
# [27] = test system: NCI-H226 lung
# [28] = test system: NCI-H23 lung
# [29] = test system: NCI-H460 lung
# [30] = test system: NCI-H522 lung
# [31] = test system: NCI/ADR-RES ovarian
# [32] = test system: OVCAR-3 ovarian
# [33] = test system: OVCAR-4 ovarian
# [34] = test system: OVCAR-5 ovarian
# [35] = test system: OVCAR-8 ovarian
# [36] = test system: PC-3 prostate
# [37] = test system: RPMI-8226 leukemia
# [38] = test system: RXF 393 renal
# [39] = test system: SF-268 CNS
# [40] = test system: SF-295 CNS
# [41] = test system: SK-MEL-2 melanoma
# [42] = test system: SK-MEL-28 melanoma
# [43] = test system: SK-MEL-5 melanoma
# [44] = test system: SK-OV-3 ovarian
# [45] = test system: SN12C renal
# [46] = test system: SNB-19 CNS
# [47] = test system: SNB-75 CNS
# [48] = test system: SR leukemia
# [49] = test system: SW-620 colon
# [50] = test system: T-47D breast
# [51] = test system: TK-10 renal
# [52] = test system: U251 CNS
# [53] = test system: UACC-257 melanoma
# [54] = test system: UACC-62 melanoma
# [55] = test system: UO-31 renal
# [56] = test system: HL-60(TB) leukemia
# [57] = test system: HOP-92 NSCLC
# [58] = test system: LOX IMVI melanoma
# [59] = test system: SF-539 CNS
smiles,measurement,setting,value
CCn1c(=O)ccc2ccc(N(CCO)CCO)nc21,TGI,[1],> 100 µM
same,TGI,[2],> 100 µM
same,TGI,[3],> 100 µM
same,TGI,[4],> 100 µM
same,TGI,[5],> 100 µM
same,TGI,[6],> 100 µM
same,TGI,[7],> 100 µM
same,TGI,[8],> 100 µM
same,TGI,[9],> 100 µM
same,TGI,[10],> 100 µM
same,TGI,[11],> 100 µM
same,TGI,[12],> 100 µM
same,TGI,[13],> 100 µM
same,TGI,[14],> 100 µM
same,TGI,[15],> 100 µM
same,TGI,[16],> 100 µM
same,TGI,[17],> 100 µM
same,TGI,[18],> 100 µM
same,TGI,[19],> 100 µM
same,TGI,[20],> 100 µM
same,TGI,[21],> 100 µM
same,TGI,[22],> 100 µM
same,TGI,[23],> 100 µM
same,TGI,[24],> 100 µM
same,TGI,[25],> 100 µM
same,TGI,[26],> 100 µM
same,TGI,[27],> 100 µM
same,TGI,[28],> 100 µM
same,TGI,[29],> 100 µM
same,TGI,[30],> 100 µM
same,TGI,[31],> 100 µM
same,TGI,[32],> 100 µM
same,TGI,[33],> 100 µM
same,TGI,[34],> 100 µM
same,TGI,[35],> 100 µM
same,TGI,[36],> 100 µM
same,TGI,[37],> 100 µM
same,TGI,[38],> 100 µM
same,TGI,[39],> 100 µM
same,TGI,[40],> 100 µM
same,TGI,[41],> 100 µM
same,TGI,[42],> 100 µM
same,TGI,[43],> 100 µM
same,TGI,[44],> 100 µM
same,TGI,[45],> 100 µM
same,TGI,[46],> 100 µM
same,TGI,[47],> 100 µM
same,TGI,[48],> 100 µM
same,TGI,[49],> 100 µM
same,TGI,[50],> 100 µM
same,TGI,[51],> 100 µM
same,TGI,[52],> 100 µM
same,TGI,[53],> 100 µM
same,TGI,[54],> 100 µM
same,TGI,[55],> 100 µM
O=c1[nH]c(SCc2c(Cl)c(Cl)c(Cl)c(Cl)c2Cl)nc(=S)[nH]1,TGI,[1],> 100 µM
same,TGI,[2],> 100 µM
same,TGI,[3],> 100 µM
same,TGI,[4],> 100 µM
same,TGI,[5],> 100 µM
same,TGI,[6],> 100 µM
same,TGI,[7],36.9 µM
same,TGI,[8],33.8 µM
same,TGI,[9],> 100 µM
same,TGI,[10],> 100 µM
same,TGI,[12],> 100 µM
same,TGI,[13],> 100 µM
same,TGI,[56],51.4 µM
same,TGI,[14],> 100 µM
same,TGI,[57],> 100 µM
same,TGI,[15],> 100 µM
same,TGI,[16],> 63 µM
same,TGI,[17],> 100 µM
same,TGI,[18],45.9 µM
same,TGI,[19],> 100 µM
same,TGI,[58],> 100 µM
same,TGI,[20],> 100 µM
same,TGI,[21],73.4 µM
same,TGI,[22],> 100 µM
same,TGI,[23],> 100 µM
same,TGI,[24],> 100 µM
same,TGI,[25],> 100 µM
same,TGI,[26],21.3 µM
same,TGI,[27],> 100 µM
same,TGI,[28],> 100 µM
same,TGI,[29],> 100 µM
same,TGI,[30],34.4 µM
same,TGI,[31],> 100 µM
same,TGI,[32],31 µM
same,TGI,[33],54.8 µM
same,TGI,[34],> 100 µM
same,TGI,[35],> 100 µM
same,TGI,[36],> 100 µM
same,TGI,[37],23.3 µM
same,TGI,[38],35.5 µM
same,TGI,[39],> 100 µM
same,TGI,[40],> 100 µM
same,TGI,[59],> 100 µM
same,TGI,[41],> 100 µM
same,TGI,[42],98.6 µM
same,TGI,[43],> 100 µM
same,TGI,[44],> 100 µM
same,TGI,[45],> 100 µM
same,TGI,[46],> 100 µM
same,TGI,[47],> 100 µM
same,TGI,[48],0.516 µM
same,TGI,[49],> 100 µM
same,TGI,[50],> 82.9 µM
same,TGI,[51],> 100 µM
same,TGI,[52],> 100 µM
same,TGI,[53],> 100 µM
same,TGI,[54],> 100 µM
same,TGI,[55],> 58.9 µM
